Results taken from patent US4371532A, “Malonamidooxadethiacephem compounds” (Shionogi & Co., Ltd., priority 1980, dated 1983).

Each compound was assayed on Escherichia coli EC-14 (assay: Minimal inhibitory concentration in vitro by serial dilution method on Mueller Hinton agar). Settings: EC14, Het=Tdz, disodium salts (10), E. coli EC-14, Mueller Hinton agar.
Format: cell-based

In order of falling MIC:
1. COC1(NC(=O)C(C)C(=O)O)C(=O)N2C(C(=O)O)=C(CSc3nncs3)COC21 (centres unmarked) [Het=Tdz No. 1]  0.39 µg/mL
2. CCCCC(C(=O)O)C(=O)NC1(OC)C(=O)N2C(C(=O)O)=C(CSc3nncs3)COC21 (centres unmarked) [Het=Tdz No. 4]  0.39 µg/mL
3. C=CCC(C(=O)O)C(=O)NC1(OC)C(=O)N2C(C(=O)O)=C(CSc3nncs3)COC21 (centres unmarked) [Het=Tdz No. 5]  0.39 µg/mL
4. CCC(C(=O)O)C(=O)NC1(OC)C(=O)N2C(C(=O)O)=C(CSc3nncs3)COC21 (centres unmarked) [Het=Tdz No. 2]  0.2 µg/mL
5. CCCC(C(=O)O)C(=O)NC1(OC)C(=O)N2C(C(=O)O)=C(CSc3nncs3)COC21 (centres unmarked) [Het=Tdz No. 3]  0.2 µg/mL

Same assay, conditions: EC14, Het=Tetr, disodium salts (10), E. coli EC-14, Mueller Hinton agar

In order of falling MIC:
1. CCCCCCC(C(=O)O)C(=O)NC1(OC)C(=O)N2C(C(=O)O)=C(CSc3nnnn3C)COC21 (centres unmarked) [Het=Tetr No. 7]  12.5 µg/mL
2. COC1(NC(=O)CC(=O)O)C(=O)N2C(C(=O)O)=C(CSc3nnnn3C)COC21 (centres unmarked) [Het=Tetr No. 1]  1.56 µg/mL
3. COC1(NC(=O)C(C(=O)O)C(C)C)C(=O)N2C(C(=O)O)=C(CSc3nnnn3C)COC21 (centres unmarked) [Het=Tetr No. 5]  0.39 µg/mL
4. COC1(NC(=O)C(CC(C)C)C(=O)O)C(=O)N2C(C(=O)O)=C(CSc3nnnn3C)COC21 (centres unmarked) [Het=Tetr No. 6]  0.39 µg/mL
5. COC1(NC(=O)C(C)C(=O)O)C(=O)N2C(C(=O)O)=C(CSc3nnnn3C)COC21 (centres unmarked) [Het=Tetr No. 2]  0.2 µg/mL
6. C=CCC(C(=O)O)C(=O)NC1(OC)C(=O)N2C(C(=O)O)=C(CSc3nnnn3C)COC21 (centres unmarked) [Het=Tetr No. 8]  0.2 µg/mL
7. CCC(C(=O)O)C(=O)NC1(OC)C(=O)N2C(C(=O)O)=C(CSc3nnnn3C)COC21 (centres unmarked) [Het=Tetr No. 3]  0.1 µg/mL
8. CCCC(C(=O)O)C(=O)NC1(OC)C(=O)N2C(C(=O)O)=C(CSc3nnnn3C)COC21 (centres unmarked) [Het=Tetr R=n-C3 H7]  0.1 µg/mL

Each compound was assayed on P. aeruginosa CN-5 (assay: Protection of mice from infection caused by Pseudomonas aeruginosa CN-5). Settings: CN5, ip, inoculation = 7 × 10^3, two subc. inj. (mg/kg each) 1 and 5 hrs after intraperitoneal inoculation.
Format: in vivo
Procedure: Five representative compounds in the preceding examples are assayed for protection of mice from infection caused by Pseudomonas aeruginosa to give the effects as in the following table. | two subc. inj. (given mg/kg each) 1 and 5 | hrs after intraperitoneal inoculation | *inoculation = 7 × 10^3 -

In order of rising ED50:
1. CCC(C(=O)O)C(=O)NC1(OC)C(=O)N2C(C(=O)O)=C(CSc3nnnn3C)COC21 (centres unmarked) [compound 2]  22.2 mg/kg
2. COC1(NC(=O)C(C)C(=O)O)C(=O)N2C(C(=O)O)=C(CSc3nnnn3C)COC21 (centres unmarked) [compound 1]  22.3 mg/kg
3. CCC(C(=O)O)C(=O)NC1(OC)C(=O)N2C(C(=O)O)=C(CSc3nncs3)COC21 (centres unmarked) [compound 4]  32.5 mg/kg
4. COC1(NC(=O)C(C)C(=O)O)C(=O)N2C(C(=O)O)=C(CSc3nncs3)COC21 (centres unmarked) [compound 3]  33.8 mg/kg
5. COC1(NC(=O)C(C(=O)O)c2ccc(O)cc2)C(=O)N2C(C(=O)O)=C(CSc3nnnn3C)COC21 (centres unmarked) [Reference, reference compound]  44.5 mg/kg

These compounds were tested on P. aeruginosa PS-24 (assay: Protection of mice from infection caused by Pseudomonas aeruginosa PS-24). Settings: PS24, ip, inoculation = 1 × 10^4, two subc. inj. (mg/kg each) 1 and 5 hrs after intraperitoneal inoculation.
Format: in vivo
Procedure: Five representative compounds in the preceding examples are assayed for protection of mice from infection caused by Pseudomonas aeruginosa to give the effects as in the following table. | two subc. inj. (given mg/kg each) 1 and 5 | hrs after intraperitoneal inoculation | **inoculation = 1 × 10^4

In order of falling ED50:
1. COC1(NC(=O)C(C(=O)O)c2ccc(O)cc2)C(=O)N2C(C(=O)O)=C(CSc3nnnn3C)COC21 (centres unmarked) [Reference, reference compound]  20.4 mg/kg
2. CCC(C(=O)O)C(=O)NC1(OC)C(=O)N2C(C(=O)O)=C(CSc3nnnn3C)COC21 (centres unmarked) [compound 2]  17.7 mg/kg
3. CCC(C(=O)O)C(=O)NC1(OC)C(=O)N2C(C(=O)O)=C(CSc3nncs3)COC21 (centres unmarked) [compound 4]  15.5 mg/kg
4. COC1(NC(=O)C(C)C(=O)O)C(=O)N2C(C(=O)O)=C(CSc3nncs3)COC21 (centres unmarked) [compound 3]  12.6 mg/kg
5. COC1(NC(=O)C(C)C(=O)O)C(=O)N2C(C(=O)O)=C(CSc3nnnn3C)COC21 (centres unmarked) [compound 1]  11.1 mg/kg
